Laboratory results: patent US8097709B2, “Macrolactam compounds” (Novobiotic Pharmaceuticals, Inc., priority 2007, dated 2012)
In brackets after ≈: the same amount, converted by molar mass.

Legend:
B. subtilis 1A1 [1] = assay: Growth inhibition on solid agar (5 μl spot on bacterial lawn); format: cell-based; conditions: minimal concentration giving observable zone of no growth, MHB agar
B. anthracis Sterne = format: cell-based; conditions: minimal concentration giving observable zone of no growth, MHB agar
MRSA NRS1 = assay: Growth inhibition on solid agar (5 μl spot on bacterial lawn); format: cell-based, Staphylococcus aureus; conditions: minimal concentration giving observable zone of no growth, MHB agar
MRSA NRS108 [2] = assay: as above; format: cell-based, Staphylococcus aureus; conditions: minimal concentration giving observable zone of no growth, MHB agar
[3] = system: E. faecalis ATCC 51575 (VRE); assay: as above; format: cell-based; conditions: minimal concentration giving observable zone of no growth, MHB agar
[4] = system: E. faecalis ATCC 51299 (VRE); assay: as above; format: cell-based; conditions: minimal concentration giving observable zone of no growth, MHB agar
E. faecalis BM4147 (VRE) = assay: as above; format: cell-based; conditions: minimal concentration giving observable zone of no growth, MHB agar
[5] = system: NIH3T3 mouse embryonic fibroblasts; assay: Mammalian cytotoxicity assay (CellTiter 96 AQueous One Solution); format: cell-based; conditions: NIH3T3 cells, 24 hr exposure; concentration with 50% of control signal
Description: Mammalian cytotoxicity assays were performed using NIH3T3 mouse embryonic fibroblasts (ATCC CRL-1658), and cytotoxicity was measured using the CellTiter 96® AQueous One Solution Cell Proliferation Assay (Promega, Madison, Wis., Cat: G3582), according to the manufacturer's recommendations.
A control of DMSO was also included (wells in column A01, and A12).
An exponentially growing population of NIH/3T3 mouse embryonic fibroblast cells was trypsinized into single cell suspension and seeded at 3000 cells per 100 μl in all wells, except column 11 and 12 of a sterile 96-well flat bottom plate. […]
The plate was visually inspected under a dissecting microscope, and the absorbance at 490 nm was read using a Spectramax Plus Spectrophotometer, with wells A12, and B12 reserved as blanks (FIG. 3). The signal of compound alone (well All) was verified not to contribute to the absorbance at this wavelength. Next, 20 μl of the CellTiter 96® AQueous One Solution Cell Proliferation Assay (Promega, Madison, Wis., Cat: G3582) was added to each well, and the plate was read after 3 hr of incubation. […]

human red blood cells = format: cell-based
Description: The effect of NOVO3 on the hemolysis of human red blood cells was also tested. A total of 10 ml of expired packed red blood cells from the blood bank was gently added to 80 ml of PBS (Phosphate buffered saline), and pelleted at 1000 g for 5 minutes at 4° C. The upper phase and buffy layer (white blood cells) were removed. The cells are repeatedly washed by gentle mixing with PBS, and centrifugation until the upper phase is clear. In the last wash, 40 ml of 1×PBS with 0.05% BSA was added to half of the red blood cells while 40 ml of 1×PBS without BSA was added to the other half. The upper phase of the last wash was removed to leave a total volume of about 10 ml. The concentration of the red blood cells was measured by using the spectrophometer at 600 nm. […]
The compound NOVO3 is two-fold serially diluted (similar to that described above for mammalian NIH3T3 cytotoxicity assay) as 100× concentration in DMSO, ranging from 12.5 μg/ml to 3200 μg/ml. […] After thorough mixing, the absorbance at 450 nm was read using a Spectramax Plus Spectrophotometer, with wells A12, and B12 reserved […], using wells with only 1×PBS as blanks.
The absorbance at 450 nm measured the amount of hemoglobin released by the lysis of red blood cells (FIG. 4). […]

MSSA 29213 = assay: Minimal Inhibitory Concentration in broth; format: cell-based; conditions: Staphylococcus aureus
MSSA 33591 = assay: Minimal Inhibitory Concentration in broth; format: cell-based; conditions: Staphylococcus aureus
C. difficile 2001 = assay: Minimal Inhibitory Concentration in broth; format: cell-based; conditions: Clostridioides difficile, 2001, C. difficile 2001
C. difficile 196 = assay: Minimal Inhibitory Concentration in broth; format: cell-based; conditions: Clostridioides difficile, MHB + 0.05% BSA
B. subtilis 1A1 [6] = assay: Minimal Inhibitory Concentration in broth; conditions: Bacillus subtilis, 1A1, B. subtilis 1A1
MRSA NRS108 [7] = assay: Minimal Inhibitory Concentration in broth; conditions: Staphylococcus aureus

CC1/C=C/C=C\C=C\CC(C)C(OC2OC(C)C(O)C(N)C2O)C\C=C/C=C/C=C\C(=O)NC1 (stereo not shown) [NOVO3]
Growth Inhibition with 5 μl of NOVO3 (B. subtilis 1A1 [1]): 0.125 µg/mL | Growth Inhibition with 5 μl of NOVO3 (B. anthracis Sterne): 1.25 µg/mL | Growth Inhibition with 5 μl of NOVO3 (MRSA NRS1): 1.25 µg/mL | Growth Inhibition with 5 μl of NOVO3 (MRSA NRS108 [2]): 1.25 µg/mL | Growth Inhibition with 5 μl of NOVO3 [3]: 5 µg/mL | Growth Inhibition with 5 μl of NOVO3 [4]: 1.25 µg/mL | Growth Inhibition with 5 μl of NOVO3 (E. faecalis BM4147 (VRE)): 1.25 µg/mL | LD50 [5]: > 32 µg/mL | hemolysis (human red blood cells): no significant hemolysis | MIC (MSSA 29213; MHB): 8 µg/mL (≈ 16.9 µM) | MIC (MSSA 29213; MHB + 0.05% BSA): 0.25 µg/mL | MIC (MSSA 33591; MHB): 8 µg/mL (≈ 16.9 µM) | MIC (MSSA 33591; MHB + 0.05% BSA): 0.25 µg/mL | MIC (C. difficile 2001; MHB): 32 µg/mL (≈ 67.7 µM) | MIC (C. difficile 2001; MHB + 0.05% BSA): 8 µg/mL | MIC (C. difficile 196): 8 µg/mL | MIC (B. subtilis 1A1 [6]; MHB (Table 3)): 3 ± 1.3 µg/mL (≈ 6.35 µM) | MIC (B. subtilis 1A1 [6]; MHB (Table 4, serum study)): 3 ± 1.3 µg/mL (≈ 6.35 µM) | MIC (B. subtilis 1A1 [6]; MHB + 0.02% Tween 80): 0.25 µg/mL | MIC (B. subtilis 1A1 [6]; MHB + 0.05% BSA): 0.166 ± 0.08 µg/mL | MIC (B. subtilis 1A1 [6]; MHB + 10% Calf Bovine Serum): 0.144 µg/mL | MIC (B. subtilis 1A1 [6]; MHB + 10% human serum): 0.125 µg/mL | MIC (B. subtilis 1A1 [6]; MHB + 10% mouse serum): 0.125 µg/mL | MIC (B. subtilis 1A1 [6]; MHB + 40% Calf Bovine Serum): 0.125 µg/mL | MIC (MRSA NRS108 [7]; MRSA NRS108, MHB (Table 3)): 8 µg/mL (≈ 16.9 µM) | MIC (MRSA NRS108 [7]; MRSA NRS108, MHB (Table 4B, serum study)): 4 to 8 µg/mL (≈ 8.46 to 16.9 µM) | MIC (MRSA NRS108 [7]; MRSA NRS108, MHB + 0.05% BSA): 0.25 to 0.5 µg/mL | MIC (MRSA NRS108 [7]; MRSA NRS108, MHB + 10% Calf Bovine Serum): 0.25 to 0.5 µg/mL | MIC (MRSA NRS108 [7]; MRSA NRS108, MHB + 40% Calf Bovine Serum): 0.25 µg/mL | MIC (MRSA NRS108 [7]; MRSA|NRS108, MRSA NRS108, GM (Dulbecco's Modified Eagle's medium with 10% bovine calf serum)): 0.25 µg/mL (≈ 0.529 µM)

Triton X100 [reference compound]
absorbance at 450 nm (hemoglobin released) (human red blood cells): 0.41
